This passage reports TGI and GI50 results from PubChem BioAssay (NCI).

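Five compound concentrations were applied to cells in 96-well plates for 48 hours; endpoints were derived by simple linear interpolation of the resulting dose-response curve. At the GI50, growth is halved. TGI: total growth inhibition.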 Some results are limits rather than exact numbers.

Among the test systems are RPMI-8226 leukemia; OVCAR-3 ovarian; U251 CNS; NCI-H226 lung; ACHN renal; UO-31 renal; M14 melanoma; SK-OV-3 ovarian; IGROV1 ovarian.
Common to all, as to experiment: growth of human tumour cells (NCI), 48 h

On to `O=C(O)CCCSC(=O)Nc1ccc(N=Nc2ccccc2)cc1`, for which the TGI in the experiment on RPMI-8226 leukemia, in the experiment with OVCAR-3 ovarian, in the experiment on U251 CNS, in the experiment with NCI-H226 lung, in the experiment on ACHN renal and in the experiment on UO-31 renal was more than 100 µM in each case. This compound had a TGI in the experiment with M14 melanoma of more than 100 µM.

As for `C=CCNC(=O)N(CCCCC(NC(C)=O)C(=O)NCc1ccccc1)Cc1ccccc1` (stereo unspecified), the TGI in the experiment on SK-OV-3 ovarian, in the experiment on RPMI-8226 leukemia, in the experiment on IGROV1 ovarian, in the experiment on OVCAR-3 ovarian, in the experiment on U251 CNS and in the experiment with NCI-H226 lung was more than 100 µM each time. Moreover, the TGI with ACHN renal, in the experiment on UO-31 renal and with M14 melanoma was more than 100 µM each time.

Take `COc1ccc(C23C(=O)c4ccccc4N2O[C@H]2C(=O)N(c4ccccc4)C(=O)[C@H]23)cc1` (stereo partly specified): the TGI in the experiment with SK-OV-3 ovarian, with RPMI-8226 leukemia, in the experiment with IGROV1 ovarian, with OVCAR-3 ovarian, in the experiment with U251 CNS and in the experiment with NCI-H226 lung was more than 100 µM in each case. The TGI in the experiment on ACHN renal, in the experiment with UO-31 renal and in the experiment on M14 melanoma was more than 100 µM throughout.

For the compound `CCCCCCCCCCCc1nnc(N)o1`, the TGI with SK-OV-3 ovarian, in the experiment with RPMI-8226 leukemia, with IGROV1 ovarian, in the experiment on OVCAR-3 ovarian, in the experiment with U251 CNS and in the experiment with NCI-H226 lung was more than 100 µM throughout. In addition, the TGI in the experiment with ACHN renal was more than 100 µM; in the experiment on UO-31 renal it was 38.3 µM; with M14 melanoma, more than 100 µM.

Regarding `N.N.N.N.[Co+3].[N-]=[N+]=[N-].[N-]=[N+]=[N-].[N-]=[N+]=[N-]`, the GI50 in the experiment on SK-OV-3 ovarian was more than 100 µM; with RPMI-8226 leukemia, more than 100 µM; in the experiment on IGROV1 ovarian it was more than 100 µM; in the experiment with OVCAR-3 ovarian, more than 100 µM; in the experiment with U251 CNS, more than 100 µM; in the experiment with ACHN renal it was 52 µM. Moreover, the values for the GI50 with UO-31 renal and in the experiment with M14 melanoma were 29.2 µM and more than 100 µM, respectively. Also, the TGI with SK-OV-3 ovarian, with RPMI-8226 leukemia, in the experiment on IGROV1 ovarian, in the experiment on OVCAR-3 ovarian, with U251 CNS and in the experiment with ACHN renal was more than 100 µM in each case. Besides, the TGI in the experiment with UO-31 renal and in the experiment on M14 melanoma was more than 100 µM in each case.

As to `CC(C)=CC1C[C@H](C2CC=C3C2(C)CCC2[C@@]3(C)C(=O)CC3[C@]2(C)C=CC(=O)[C@]3(C)CO)CO1` (stereo partly specified), the TGI in the experiment with SK-OV-3 ovarian is 39.6 µM; in the experiment with RPMI-8226 leukemia, 15.3 µM; in the experiment with IGROV1 ovarian, 29.5 µM; in the experiment with OVCAR-3 ovarian, 13.2 µM; with U251 CNS, 21.7 µM; with ACHN renal, 30.7 µM. Besides, the TGI in the experiment with UO-31 renal stood at 33.1 µM; in the experiment with M14 melanoma, 12.1 µM.

`COC(=O)CC1C[C@H](C#N)N(C(=O)c2ccccc2)C[C@@H]1CC[N+](=O)[O-]` (stereo partly specified): the TGI in the experiment with SK-OV-3 ovarian, in the experiment on RPMI-8226 leukemia, in the experiment on IGROV1 ovarian, with OVCAR-3 ovarian, in the experiment on U251 CNS and in the experiment with ACHN renal was more than 100 µM each time. The TGI in the experiment on UO-31 renal and in the experiment with M14 melanoma was more than 100 µM each time.

Regarding `COc1ccc(/C=N/N=C(\N)NO)cc1O`, the TGI in the experiment on SK-OV-3 ovarian, with RPMI-8226 leukemia, in the experiment on IGROV1 ovarian, with U251 CNS, with NCI-H226 lung and in the experiment on UO-31 renal was more than 100 µM each time.

Turning to `O=C(O)CCN(CCCCN(CCC(=O)O)CCC(=O)O)CCC(=O)O`, the TGI in the experiment with SK-OV-3 ovarian, in the experiment on RPMI-8226 leukemia, in the experiment on IGROV1 ovarian, in the experiment on OVCAR-3 ovarian, in the experiment on U251 CNS and with ACHN renal was more than 100 µM in each case. Further, in the experiment with M14 melanoma, the TGI is more than 100 µM.

For `N.N.N.N.N.NC(=O)c1nn[n-]n1.[Cl-].[Co+3]`, the GI50 in the experiment with SK-OV-3 ovarian, with RPMI-8226 leukemia, in the experiment with IGROV1 ovarian, in the experiment with OVCAR-3 ovarian, with U251 CNS and with ACHN renal was more than 100 µM each time. The GI50 in the experiment with UO-31 renal and with M14 melanoma was more than 100 µM in each case. The TGI with SK-OV-3 ovarian, in the experiment on RPMI-8226 leukemia, in the experiment on IGROV1 ovarian, with OVCAR-3 ovarian, in the experiment with U251 CNS and with ACHN renal was more than 100 µM in each case. For the same compound, the TGI in the experiment on UO-31 renal and in the experiment with M14 melanoma was more than 100 µM each time.

For `COC(=O)NC(=O)c1cn(C2OC(CO)C(O)C2O)c(=O)[nH]c1=O` (stereo unspecified), the TGI in the experiment with SK-OV-3 ovarian, with RPMI-8226 leukemia, in the experiment on IGROV1 ovarian, in the experiment with OVCAR-3 ovarian, in the experiment on U251 CNS and in the experiment with NCI-H226 lung was more than 100 µM each time. The TGI with ACHN renal, in the experiment with UO-31 renal and in the experiment on M14 melanoma was more than 100 µM throughout.

Turning to `Cc1cc(CC(=O)NCCO)n(CCO)c(=O)c1`, the TGI with IGROV1 ovarian, in the experiment on OVCAR-3 ovarian, with U251 CNS, in the experiment on ACHN renal, in the experiment with UO-31 renal and in the experiment with M14 melanoma was more than 100 µM each time.

For `NC(=O)C(=O)N/N=C1\C(=O)N(c2ccc(Cl)cc2Cl)C(=O)C1C(=O)Nc1ccc(Cl)cc1Cl` (stereo unspecified), the TGI in the experiment on SK-OV-3 ovarian, in the experiment on RPMI-8226 leukemia, in the experiment with IGROV1 ovarian, in the experiment with OVCAR-3 ovarian, in the experiment on U251 CNS and in the experiment on NCI-H226 lung was more than 100 µM in each case. The TGI in the experiment with ACHN renal, in the experiment on UO-31 renal and with M14 melanoma was more than 100 µM in each case.

Regarding `Cc1cccc(/C=C/c2c(C(=O)/C=C/c3ccccc3)c(C)nc3ccccc23)c1`, the GI50 in the experiment with IGROV1 ovarian was 1.44 µM; in the experiment on OVCAR-3 ovarian, 1.46 µM; with U251 CNS, 1.47 µM; with NCI-H226 lung it was 1.73 µM; in the experiment on ACHN renal, 1.62 µM; in the experiment on UO-31 renal, 1.26 µM. Besides, the TGI in the experiment on IGROV1 ovarian was determined as 4 µM; in the experiment with OVCAR-3 ovarian it was 2.81 µM; in the experiment on U251 CNS, 2.85 µM; in the experiment with NCI-H226 lung, 3.82 µM; in the experiment on ACHN renal, 2.97 µM; with UO-31 renal, 2.51 µM.
